The values below come from the METLIN SMRT retention time set (Domingo-Almenara et al. 2019).

A short description of this data set: gradient 5% acetonitrile 3 min, to 50% in 2 min, to 85% in 15 min, held 3 min, 100 µL/min. The following applies: column: Zorbax Extend-C18 2.1 x 50 mm; eluents: water / acetonitrile, 0.1% formic acid. The method, boiled down: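 Values are retention times taken from adduct peaks that software picked and an analyst inspected. The pure standards were run as mixtures of ~100 molecules on HPLC linked to a quadrupole time-of-flight mass spectrometer, in positive and negative ionization mode. A Zorbax Extend-C18 column (2.1 × 50 mm, 1.8 μm) was used at 100 μL/min with water and acetonitrile, each including 0.1% formic acid.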
On to `COc1ccc(OCc2nnc3sc(-c4cc5ccccc5o4)nn23)cc1`, for which the RP-LC retention time worked out at 984 s.
The same measure for `O=C(COc1ccc(Cl)cc1)NCC#CCN1CCCC1`: 544 s.
As for `COc1ccc(NS(=O)(=O)/C=C/c2ccccc2)cc1N1CCCC1=O`, the RP-LC retention time was found to be 721 s.
The same measure for `CCCCNC(=O)C1CCCN(C(=O)c2[nH]c(C)c(C(=O)OC(C)C)c2C)C1` (centres undefined): 754 s.
The same measure for `O=C(Nc1ccc(C(F)(F)F)cc1)NC1CCN(c2cc(N3CCOCC3)cnn2)C1` (centres undefined): 685 s.
The same measure for `COC(=O)c1ccc2c(=O)n(-c3cccc(OC)c3)c(N3CCN(c4ccccn4)CC3)nc2c1`: 705 s; for `CCCn1cnc2cc(CNC(=O)C(C)c3ccccc3)ccc21` (centres undefined): 631 s; for `CCOc1cccc(-c2noc(Cn3c(=O)n(Cc4ccc(OC)cc4)c(=O)c4sccc43)n2)c1`: 1060 s.
`CCCN(C)S(=O)(=O)c1cc(-c2nnc(C)o2)co1`: the RP-LC retention time is 768 s.
On to `Cc1noc(-c2ccc(S(=O)(=O)N3CCN(c4ccccn4)CC3)s2)c1C`, for which the RP-LC retention time came to 730 s.
The same measure for `O=C(NCCc1csc(-c2cccs2)n1)C1CCN(C(=O)COc2ccccc2)CC1`: 783 s; for `CCn1ccc(C(=O)NCC2Cn3cccc3C(=O)N2CC(C)C)n1` (centres undefined): 680 s; for `O=C(NCc1cccnc1)C1c2ccccc2C(=O)N1Cc1ccc2c(c1)OCO2` (centres undefined): 609 s.
The compound `CC(=O)N1CCCC1c1nc(C2CN(S(=O)(=O)c3cccs3)C2)no1` (centres undefined) gave an RP-LC retention time of 703 s.
The same measure for `CCN(CC)CCNC(=O)c1c(-c2ccccc2)c(-c2ccccc2)nn(CC)c1=O`: 666 s; for `COc1ccc(OC)c(NC(=O)C2CCN(S(=O)(=O)c3cc(-c4noc(C)n4)cs3)CC2)c1`: 931 s.
The same measure for `Clc1cccc(-c2nc(-c3ccc4c(c3)ncn4CCN3CCOCC3)no2)c1`: 676 s; for `CCOC(=O)c1nn(-c2ccc(F)cc2)c(=O)cc1NCC1CCCO1` (centres undefined): 766 s; for `O=C(CN1CCN(Cc2ccc(F)cc2)C(=O)C1=O)N1CCN(Cc2ccccc2)CC1`: 603 s.
As to `CCc1ccc(CNC(=O)c2cc3n(n2)CC(C)(C(=O)NCc2ccccc2)N(C)C3=O)cc1` (centres undefined), the RP-LC retention time amounted to 832 s.
The same measure for `Cc1cccc(-c2nnc(-c3cc(S(=O)(=O)N4CCCCC4)ccc3Cl)o2)c1`: 1210 s.
Turning to `CCS(=O)(=O)Nc1ccc(OCc2nnc(-c3ccccc3)o2)cc1`, the RP-LC retention time was found to be 804 s.
`Cc1nn(-c2ccccc2)cc1C(=O)N1CCC(CC(=O)N2CCOCC2)CC1` came in with an RP-LC retention time of 669 s.
The same measure for `Cc1cc(C)cc(-n2ncc3c(N4CCN(CCO)CC4)ncnc32)c1`: 649 s.
Compound `COc1ccc(S(=O)(=O)Cc2nc(-c3cccc(C(F)(F)F)c3)no2)cc1` displayed an RP-LC retention time of 1060 s.
`CCOc1ccc(NC(=O)C2=C(C)NC(=O)NC2c2ccc([N+](=O)[O-])cc2)cc1` (centres undefined) gave an RP-LC retention time of 695 s.
The same measure for `O=C(Nc1ccccc1)C1CCc2nc(N3CCCCC3)ncc2C1` (centres undefined): 745 s; for `CC1CCN(C(=O)c2cc3c(s2)CCC(C(=O)O)C3)CC1` (centres undefined): 580 s.
The same measure for `N#Cc1cccc(S(=O)(=O)N2CCc3nc(-c4ccc(Cl)cc4)ncc3C2)c1`: 1130 s; for `COc1ccc(-c2cc(C(=O)N(C)C3CCN(C)CC3)nn2C2CCS(=O)(=O)C2)cc1` (centres undefined): 600 s.
The same measure for `Cc1cccc(Cn2nc3ccc(S(=O)(=O)N4CCOCC4)cn3c2=O)c1`: 826 s; for `COc1ccc(F)cc1-c1cc(N2CCN(C(=O)NCC(C)C)CC2)ncn1`: 645 s.
As to `Cc1ccc(NC(=O)Nc2ccccc2)c(=O)n1CC(=O)N1CCCC1`, the RP-LC retention time worked out at 767 s.
The same measure for `O=C(Cc1ccccc1F)N1CCCn2nc(-c3cccs3)cc2C1`: 875 s; for `Cc1oc(-c2[nH]ncc2C(=O)N(C)C)cc1S(=O)(=O)NCc1ccc(Cl)cc1`: 725 s.
The same measure for `COC(=O)c1cnc(N2CCN(c3ccccc3)CC2)c2ccccc12`: 1160 s.
The same measure for `COc1ccccc1NC(=O)N(C)CCc1noc(COc2ccc(Cl)cc2)n1`: 972 s; for `Clc1ccc(-c2nnc(-c3nc(NCc4cccnc4)c4ccccc4n3)o2)cc1`: 680 s.
The compound `Cc1ccc(NC(=O)Nc2ccc3nc(N4CCN(C)CC4)cc(C)c3c2)cc1F` yielded an RP-LC retention time of 614 s.
The same measure for `O=C(Cn1cnc2nc3c(cc2c1=O)CCCC3)Nc1cccc(F)c1`: 721 s; for `CC(C)Cn1nc2c(S(=O)(=O)N3CCN(c4ccc(F)cc4)CC3)cccn2c1=O`: 914 s; for `O=C(NCCc1nc(-c2ccc3c(c2)OCO3)n[nH]1)c1ccc(F)c(Cl)c1`: 743 s.
In the case of `N#Cc1ccc2ccn(CC(=O)N3CCCc4ccccc43)c2c1`, the RP-LC retention time amounted to 963 s.
On to `COc1ccccc1OC(C)C(=O)N(Cc1ccc(C)o1)C1CCS(=O)(=O)C1` (centres undefined), for which the RP-LC retention time was 847 s.
The same measure for `CCc1nc2c(NC(=O)c3ccccc3Br)cccn2n1`: 773 s; for `CCNc1cc(N2CCCC(CCC(=O)NC(C)c3c(C)nn(C)c3C)C2)ncn1` (centres undefined): 582 s; for `CCc1nc2sc(C(C)C)nn2c1S(=O)(=O)N1CCCCC1`: 1020 s.
The same measure for `Cc1ccc(NC(=O)N2CCc3nc[nH]c3C2)cc1`: 575 s.
Take `COc1ccc(S(=O)(=O)N(C(C)=O)c2ccccc2/C=C/c2cc[n+]([O-])cc2)cc1`: the RP-LC retention time worked out at 785 s.
The same measure for `CCN(CC)CCCC(C)Nc1nc(/C=C/c2cc(OC)c(OC)cc2Cl)nc2cc(Cl)ccc12` (centres undefined): 595 s.
The same measure for `COc1ccc(NC(=O)Nc2c(-c3ccc(F)cc3)nc3ccccn23)cc1`: 649 s; for `Fc1ccc(Cc2nc(-c3cccc(-c4ccn[nH]4)c3)no2)cc1`: 925 s.
As for `Cc1sc(NC(=O)CCCc2nc(-c3ccccc3)no2)nc1-c1ccc(Cl)cc1`, the RP-LC retention time amounted to 1190 s.
The same measure for `COc1ccc(-c2noc(Cc3nc(-c4ccc(Br)cc4)cs3)n2)cc1OC`: 1200 s; for `CCCn1ccc2sc(C)c(C(=O)NCc3ccc(SC)cc3)c2c1=O`: 919 s; for `Cc1cc(S(=O)(=O)N2CCN(C3CCN(Cc4ccccn4)C3=O)CC2)ccc1Cl` (centres undefined): 622 s.
The same measure for `Cc1cc(S(=O)(=O)NCC(c2cccs2)S(=O)(=O)c2ccccc2)ccc1F` (centres undefined): 906 s; for `O=C(Nc1cccc(F)c1)c1c(O)c2cccnc2n(-c2ccccc2)c1=O`: 1230 s.
With `Cc1cc(C)cc(NC(=O)NC2CCN(c3cc(N4CCCC4)cnn3)C2)c1` (centres undefined), the RP-LC retention time was determined as 690 s.
Turning to `O=C(NCc1ccncc1)c1csc(-c2ccc(N3CCCC3)nc2)n1`, the RP-LC retention time came to 559 s.
The same measure for `O=C(NC1CCCC1)C(c1ccc(Cl)cc1)N1CCN(C(=O)c2ccco2)CC1` (centres undefined): 954 s; for `O=C(COc1ccc(F)cc1)N1[C@H]2CC[C@@H]1c1cnc(-c3ccc(F)cc3)nc1C2`: 760 s; for `CCNc1cc(N2CCC(CCC(=O)NC(C)C)CC2)ncn1`: 598 s.
The compound `c1ccc(-c2noc(-c3nc(-c4ccccn4)no3)n2)cc1` yielded an RP-LC retention time of 958 s.
Regarding `CC(C)NC(=O)C1CCCN(S(=O)(=O)c2c[nH]c(C(=O)N3CCCCCC3)c2)C1` (centres undefined), the RP-LC retention time came to 734 s.
The same measure for `CCC(=O)N(C1CCOCC1)C1CCN(S(=O)(=O)c2ccc(C)cc2C)CC1`: 880 s.
The same measure for `CCCOC(=O)C1=CN(Cc2ccccc2)S(=O)(=O)N=C1C`: 1020 s.
The same measure for `Cc1cc(N2CCN(C(=O)c3cccc(N(C)C)c3)CC2)nc2nncn12`: 1010 s; for `O=C(Cc1csc2nc(-c3ccccc3)cn12)Nc1ccc2c(c1)OCCO2`: 744 s.
For `O=C(CN1CCOCC1)N1CCCCC1c1nc(C2CC2)no1` (centres undefined), the RP-LC retention time came out at 590 s.
The same measure for `O=C(Cn1nc2nc(N3CCCC3)ccn2c1=O)N1CCN(c2ccccc2F)CC1`: 691 s; for `COC(=O)c1c(NC(C)c2cccc(OC)c2)c2cccc(Cl)c2[nH]c1=O` (centres undefined): 843 s.
Compound `O=C(NC1CC1)[C@@H]1C[C@H](Oc2ccccc2)CN1C(=O)c1ccco1` returned an RP-LC retention time of 700 s.
The same measure for `O=C(Cc1ccccc1Cl)NCC1CCN(C(=O)c2ccccc2F)CC1`: 722 s.
Compound `O=C(N[C@H]1C[C@@H]2C[C@H]1N(C(=O)Nc1ccc(Cl)cc1F)C2)c1cccs1` returned an RP-LC retention time of 855 s.
The same measure for `CN1CCN(C(=O)C2CCN(S(=O)(=O)c3ccc4c(c3)sc(=O)n4C)CC2)CC1`: 596 s; for `CCOCCCNC(=O)c1c(N2CCCC2=O)c2cc(C)ccc2n1C`: 782 s.
In turn, `O=S(=O)(c1ccc(Cl)cc1)N1CCN(c2ccnc3cc(Cl)ccc23)CC1` showed an RP-LC retention time of 758 s.
The same measure for `Cc1cc(OCC(=O)NCc2ccccc2Br)nc(N2CCN(c3ccccc3)CC2)n1`: 871 s.
